Experimental findings from ChEMBL document CHEMBL1155852, “Novel inhibitors of anthrax edema factor” (Bioorg Med Chem, 2008) are described below.

The source made the active and inactive calls. The calls are words filed in the database; no cut-off is given here.

The target in test [1] is T1, Calmodulin-sensitive adenylate cyclase (Bacillus anthracis, UniProt P40136).
T1 sequence (P40136 whole entry): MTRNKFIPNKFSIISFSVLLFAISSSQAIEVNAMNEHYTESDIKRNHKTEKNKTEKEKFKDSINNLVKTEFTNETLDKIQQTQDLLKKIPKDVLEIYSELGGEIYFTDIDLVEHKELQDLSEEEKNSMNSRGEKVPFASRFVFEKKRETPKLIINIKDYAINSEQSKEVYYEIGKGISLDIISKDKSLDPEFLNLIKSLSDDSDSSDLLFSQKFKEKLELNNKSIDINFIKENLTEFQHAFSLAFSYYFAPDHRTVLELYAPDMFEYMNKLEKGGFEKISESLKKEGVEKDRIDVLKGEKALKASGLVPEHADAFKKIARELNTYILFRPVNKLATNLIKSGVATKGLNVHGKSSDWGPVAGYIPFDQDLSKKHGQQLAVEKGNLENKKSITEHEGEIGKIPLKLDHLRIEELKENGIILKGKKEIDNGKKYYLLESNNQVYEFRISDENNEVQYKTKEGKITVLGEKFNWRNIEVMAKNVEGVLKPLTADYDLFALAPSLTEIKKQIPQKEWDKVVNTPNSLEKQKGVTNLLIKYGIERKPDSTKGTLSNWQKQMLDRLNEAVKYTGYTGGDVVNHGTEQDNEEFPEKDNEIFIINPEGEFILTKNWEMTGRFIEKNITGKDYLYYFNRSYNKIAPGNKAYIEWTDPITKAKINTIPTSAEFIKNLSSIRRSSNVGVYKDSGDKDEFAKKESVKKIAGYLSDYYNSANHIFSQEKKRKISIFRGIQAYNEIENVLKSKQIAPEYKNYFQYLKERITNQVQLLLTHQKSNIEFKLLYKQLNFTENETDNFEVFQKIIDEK
Description: Inhibition of Bacillus anthracis edema factor-induced cAMP secretion in mouse RAW264.7 cells after 4 hrs by ELISA. It counts as cell-based.

The target in test [2] is T2, Calmodulin-sensitive adenylate cyclase (Bacillus anthracis) (UniProt P40136).
T2 sequence (whole entry): T1 sequence (P40136 whole entry)
The experiment in a line: Inhibition of Bacillus anthracis edema factor-induced cAMP secretion in mouse RAW264.7 cells at 100 uM after 4 hrs by ELISA. The format is cell-based.

Compound `O=C(O)c1cccc(NC(=O)c2cccc3c2C(=O)c2ccccc2-3)c1` had an IC50 in test [1] of 1830 nM.
The same measure, in the same setting: as for `COc1cccc([C@H]2Nc3ccc(C(=O)O)cc3[C@@H]3C=CC[C@H]23)c1`, the figure is 1730 nM.
On to `CCCCC[C@H](O)/C=C/[C@H]1[C@H](n2ccnc2)CC(=O)[C@@H]1C/C=C\CCCC(=O)O`, for which, in test [2], the outcome was Active.
Take `O=C(O)c1ccc(/N=C/c2c3ccccc3cc3ccccc23)cc1O`: in test [1], the midpoint of inhibition, the IC50, lay at 8500 nM.
